Laboratory results reported in ChEMBL document CHEMBL4406908, “Identification of neomacrophorins isolated from Trichoderma sp. 1212-03 as proteasome inhibitors” (Bioorg Med Chem, 2019).
Activity calls are given as the source filed them. No cut-off for these calls is given here.

Experiments:
[1] = system: HL-60; assay: Induction of apoptosis in human HL60 cells assessed as increase in cleavage of caspase 3 incubated for 4 hrs by Western blot analysis; assay type: functional, cell-based
[2] = biological target: T1, Proteasome component C5 (Homo sapiens) (UniProt P20618); assay: Inhibition of caspase-like activity of beta1 subunit of 20S proteasome in human erythrocytes using Z-LLE-MCA as substrate preincubated with enzyme for 10 mins followed by substrate addition and measured after 3 hrs by fluorescence spectrophotometeric analysis
T1 sequence (whole entry): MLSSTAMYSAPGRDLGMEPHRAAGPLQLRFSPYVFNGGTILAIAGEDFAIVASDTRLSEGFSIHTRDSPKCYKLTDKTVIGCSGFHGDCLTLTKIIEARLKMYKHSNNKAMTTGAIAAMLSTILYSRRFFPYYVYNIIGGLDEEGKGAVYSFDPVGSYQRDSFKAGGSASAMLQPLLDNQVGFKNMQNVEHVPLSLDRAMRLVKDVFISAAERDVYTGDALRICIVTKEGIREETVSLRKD

[3] = system: HL-60; assay: Antiproliferative activity against human HL60 cells assessed as cell growth inhibition incubated for 2 days by MTT assay; assay type: functional, cell-based; settings: HL-60, 48 h
[4] = Binding affinity to NAC methyl ester in PBS-MeOH (7:3) solution at 1 mM by ESI/LC-MS analysis
[5] = system: HL-60; assay: Induction of apoptosis in human HL60 cells assessed as caspase 3 cleavage at 5 uM incubated for 4 hrs in presence of 5 mM nucleophile, NAC by Western blot analysis; assay type: functional, cell-based
[6] = Binding affinity to NAC methyl ester in PBS-MeOH (7:3) solution assessed as methyl 3-[[(1R,6S)-6-[[(1S,4aR,6R,8aR)-6-hydroxy-5,5,8a-trimethyl-2-methylene-decalin-1-yl]methyl]-3-(hydroxymethyl)-2,5-dioxo-7-oxabicyclo[4.1.0]heptan-4-yl]sulfanyl]-2-acetamido-propanoate formation at 1 mM by HPLC analysis
[7] = system: HL-60; assay: Induction of apoptosis in human HL60 cells assessed as DNA fragmentation at 5 uM preincubated with 50 uM pan caspase inhibitor, z-VAD-FMK for 1 hr followed by incubation with compound for 4 hrs by ethidium bromide staining based agarose gel electrophoresis method; assay type: functional, cell-based
[8] = biological target: Proteasome Macropain subunit (Homo sapiens) (UniProt P49721); assay: Inhibition of trypsin-like activity of beta2 subunit of 20S proteasome in human erythrocytes using Boc-LRR-MCA as substrate preincubated with enzyme for 10 mins followed by substrate addition and measured after 3 hrs by fluorescence spectrophotometric analysis; assay type: cell-based
Sequence of Proteasome Macropain subunit (Homo sapiens) (P49721 whole entry, the tested form may be a part): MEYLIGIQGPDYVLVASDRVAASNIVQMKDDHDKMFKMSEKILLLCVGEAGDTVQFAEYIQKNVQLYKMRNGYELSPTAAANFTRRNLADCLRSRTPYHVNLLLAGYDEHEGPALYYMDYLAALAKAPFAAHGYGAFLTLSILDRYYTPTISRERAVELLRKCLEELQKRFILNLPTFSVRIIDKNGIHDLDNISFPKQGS

[9] = system: HL-60; assay: Induction of apoptosis in human HL60 cells assessed as increase in DNA fragmentation incubated for 4 hrs by ethidium bromide staining based agarose gel electrophoresis method; assay type: functional, cell-based
[10] = system: HL-60; assay: Induction of apoptosis in human HL60 cells assessed as ROS generation; assay type: functional, cell-based
[11] = biological target: T2, Proteasome Macropain subunit MB1 (Homo sapiens) (UniProt P28074); assay: (§1) Inhibition of chymotrypsin-like activity of beta5 subunit of 20S proteasome in human erythrocytes using Suc-LLVY-MCA as substrate preincubated with enzyme for 10 mins followed by substrate addition and measured after 3 hrs by fluorescence spectrophotometric analysis
T2 sequence (whole entry): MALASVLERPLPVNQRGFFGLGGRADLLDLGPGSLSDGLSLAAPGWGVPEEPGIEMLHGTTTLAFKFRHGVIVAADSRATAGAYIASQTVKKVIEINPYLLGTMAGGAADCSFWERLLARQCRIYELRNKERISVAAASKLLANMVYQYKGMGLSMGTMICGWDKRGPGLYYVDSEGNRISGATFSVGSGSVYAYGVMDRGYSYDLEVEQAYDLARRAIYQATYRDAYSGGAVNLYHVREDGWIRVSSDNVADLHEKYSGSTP

[12] = biological target: T3, Proteasome Macropain subunit MB1 (Homo sapiens, UniProt P28074); assay: as §1
T3 sequence (P28074 whole entry): T2 sequence (whole entry)

[13] = system: HL-60; assay: Antiproliferative activity against human HL60 cells assessed as cell viability at 0.5 to 1 uM incubated for 48 hrs in presence of 5 mM nucleophile, NAC by trypan blue dye exclusion assay; assay type: functional, cell-based
[14] = system: Proteasome; assay: Inhibition of proteasome in human HL60 cells assessed as accumulation of ubiquitinated proteins at 5 uM incubated for 4 hrs in presence of 5 mM nucleophile, NAC by Western blot analysis; assay type: subcellular
[15] = system: HL-60; assay: Inhibition of proteasome in human HL60 cells assessed as increase in accumulation of ubiquitinated proteins at 1.25 to 5 uM incubated for 4 hrs by Western blot analysis; assay type: functional, cell-based
[16] = system: HL-60; assay: Antiproliferative activity against human HL60 cells assessed as cell viability at 5 to 10 uM incubated for 48 hrs in presence of 5 mM nucleophile, NAC by trypan blue dye exclusion assay; assay type: functional, cell-based
[17] = Binding affinity to NAC methyl ester in PBS-MeOH (7:3) solution assessed as methyl 3-[[(1R,6S)-6-[[(1S,4aR,6R,8aR)-6-hydroxy-5,5,8a-trimethyl-2-methylene-decalin-1-yl]methyl]-2,5-dioxo-7-oxabicyclo[4.1.0]hept-3-en-3-yl]methylsulfanyl]-2-acetamido-propanoate formation at 1 mM by HPLC analysis
[18] = Binding affinity to NAC methyl ester assessed as methyl 3-[[(1R,6S)-6-[[(1S,4aR,6R,8aR)-6-hydroxy-5,5,8a-trimethyl-2-methylene-decalin-1-yl]methyl]-2,5-dioxo-7-oxabicyclo[4.1.0]hept-3-en-3-yl]methylsulfanyl]-2-acetamido-propanoate formation by UV spectra analysis
[19] = Binding affinity to NAC methyl ester in PBS-MeOH (7:3) solution assessed as methyl 4-[[(1R,6S)-6-[[(1S,4aR,6R,8aR)-6-hydroxy-5,5,8a-trimethyl-2-methylene-decalin-1-yl]methyl]-3-[(2-acetamido-3-methoxy-3-oxo-propyl)sulfanylmethyl]-2,5-dioxo-7-oxabicyclo[4.1.0]heptan-4-yl]sulfanyl]-3-acetamido-butanoate formation at 1 mM by HPLC analysis
[20] = biological target: T2, Proteasome Macropain subunit MB1 (Homo sapiens); assay: Inhibition of chymotrypsin-like activity of beta5 subunit of 20S proteasome in human erythrocytes at 100 uM using Suc-LLVY-MCA as substrate preincubated with enzyme for 10 mins followed by substrate addition and measured after 3 hrs by fluorescence spectrophotometeric analysis
[21] = system: HL-60; assay: Induction of apoptosis in human HL60 cells assessed as DNA fragmentation at 100 uM preincubated with 50 uM pan caspase inhibitor, z-VAD-FMK for 1 hr followed by incubation with compound for 4 hrs by ethidium bromide staining based agarose gel electrophoresis method; assay type: functional, cell-based
[22] = biological target: T1, Proteasome component C5 (Homo sapiens); assay: Inhibition of caspase-like activity of beta1 subunit of 20S proteasome in human erythrocytes at 100 uM using Z-LLE-MCA as substrate preincubated with enzyme for 10 mins followed by substrate addition and measured after 3 hrs by fluorescence spectrophotometeric analysis
[23] = Binding affinity to NAC methyl ester in PBS-MeOH (7:3) solution at 1 mM by HPLC analysis
[24] = system: HL-60; assay: Inhibition of proteasome in human HL60 cells assessed as accumulation of ubiquitinated proteins at 100 uM incubated for 4 hrs by Western blot analysis; assay type: functional, cell-based
[25] = biological target: Proteasome Macropain subunit (Homo sapiens) (UniProt P49721); assay: Inhibition of trypsin-like activity of beta2 subunit of 20S proteasome in human erythrocytes at 100 uM using Boc-LRR-MCA as substrate preincubated with enzyme for 10 mins followed by substrate addition and measured after 3 hrs by fluorescence spectrophotometric analysis
[26] = system: HL-60; assay: Inhibition of proteasome in human HL60 cells assessed as increase in accumulation of ubiquitinated proteins at 12.5 to 50 uM incubated for 4 hrs by Western blot analysis; assay type: functional, cell-based
[27] = system: HL-60; assay: Induction of apoptosis in human HL60 cells assessed as DNA fragmentation at 50 uM preincubated with 50 uM pan caspase inhibitor, z-VAD-FMK for 1 hr followed by incubation with compound for 4 hrs by ethidium bromide staining based agarose gel electrophoresis method; assay type: functional, cell-based
[28] = system: COLO 201; assay: Cytotoxicity against human COLO201 cells; assay type: functional, cell-based
[29] = Binding affinity to NAC methyl ester in PBS-MeOH (7:3) solution assessed as disappearance of peak regarding parent compound at 1 mM measured within 1 min by HPLC analysis

Row | SMILES | inhibition [2] | IC50 [3] [µM] | Activity [4] | inhibition [8] | inhibition [11] | IC50 [12] [µM] | inhibition [14] | Activity [17] | Activity [18] | Activity [19] | Activity [1] | Activity [5] | Activity [7] | Activity [9] | Activity [10] | inhibition [15] | Activity [16] | inhibition [26] | Activity [27] | also measured
1 | C=C1CC[C@H]2C(C)(C)[C@H](O)CC[C@]2(C)[C@H]1C[C@]12O[C@H]1[C@H](O)C(CO)=CC2=O | – | 25.3 | – | – | – | > 100 | – | – | – | – | Dose-dependent effect | – | – | Dose-dependent effect | inactive | – | – | – | – | inhibition [20]: inactive; Activity [21]: inactive; inhibition [22]: inactive; Activity [23]: inactive; inhibition [24]: inactive; inhibition [25]: inactive
2 | C=C1CC[C@H]2C(C)(C)[C@H](O)CC[C@]2(C)[C@H]1C[C@]12O[C@H]1[C@H](O)C(COC(=O)C[C@H](C)O)=CC2=O | Dose-dependent effect | 15 | – | Dose-dependent effect | Dose-dependent effect | 31.9 | – | – | – | – | Dose-dependent effect | – | – | Dose-dependent effect | inactive | – | – | Active | inactive | –
3 | C=C1CC[C@H]2C(C)(C)[C@H](O)CC[C@]2(C)[C@H]1C[C@]12O[C@H]1C(=O)C(COC(=O)[C@H](O)[C@H](C)O)=CC2=O | Dose-dependent effect | 2.6 | Active | Dose-dependent effect | Dose-dependent effect | 5.7 | inactive | Active | Active | Active | Dose-dependent effect | inactive | inactive | Dose-dependent effect | inactive | Active | inactive | – | – | IC50 [28]: 96.6 µM; Activity [29]: Active
4 | C=C1CC[C@H]2C(C)(C)[C@H](O)CC[C@]2(C)[C@H]1C[C@]12O[C@H]1[C@H](O)C(COC(=O)[C@H](O)[C@H](C)O)=CC2=O | Dose-dependent effect | 21.6 | – | Dose-dependent effect | Dose-dependent effect | 93.6 | – | – | – | – | Dose-dependent effect | – | – | Dose-dependent effect | inactive | – | – | Active | inactive | –

Stronger by IC50 [3], values ahead:

Row | inhibition [2] | IC50 [3] [µM] | Activity [4] | inhibition [8] | inhibition [11] | IC50 [12] [µM] | inhibition [14] | Activity [17] | Activity [18] | Activity [19] | SMILES | Activity [1] | Activity [5] | Activity [7] | Activity [9] | Activity [10] | inhibition [15] | Activity [16] | inhibition [26] | Activity [27] | also measured
5 | Dose-dependent effect | 1.3 | Active | Dose-dependent effect | Dose-dependent effect | 5.3 | inactive | Active | Active | Active | C=C1CC[C@H]2C(C)(C)[C@H](O)CC[C@]2(C)[C@H]1C[C@]12O[C@H]1C(=O)C(COC(=O)C[C@H](C)O)=CC2=O | Dose-dependent effect | inactive | inactive | Dose-dependent effect | inactive | Active | inactive | – | – | –
6 | Dose-dependent effect | 0.3 | Active | Dose-dependent effect | Dose-dependent effect | 26.3 | inactive | – | – | – | C=C1CC[C@H]2C(C)(C)[C@H](O)CC[C@]2(C)[C@H]1C[C@]12O[C@H]1C(=O)C(CO)=CC2=O | Dose-dependent effect | inactive | inactive | Dose-dependent effect | inactive | Active | – | – | – | Activity [6]: Active; inhibition [13]: inactive
